Assay [1] addresses T1, ecdysone receptor (PxGST−EcR) (Plutella xylostella, UniProt G5CV07).
T1 sequence (G5CV07 285-528): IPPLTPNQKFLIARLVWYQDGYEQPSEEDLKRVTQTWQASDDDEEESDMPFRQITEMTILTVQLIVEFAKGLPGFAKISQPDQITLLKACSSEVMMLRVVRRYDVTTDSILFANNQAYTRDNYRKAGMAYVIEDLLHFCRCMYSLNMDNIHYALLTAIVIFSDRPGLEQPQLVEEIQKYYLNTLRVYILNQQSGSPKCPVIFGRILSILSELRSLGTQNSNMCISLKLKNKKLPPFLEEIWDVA
T1 sequence (G5CV12 133-414 partner limits assumed): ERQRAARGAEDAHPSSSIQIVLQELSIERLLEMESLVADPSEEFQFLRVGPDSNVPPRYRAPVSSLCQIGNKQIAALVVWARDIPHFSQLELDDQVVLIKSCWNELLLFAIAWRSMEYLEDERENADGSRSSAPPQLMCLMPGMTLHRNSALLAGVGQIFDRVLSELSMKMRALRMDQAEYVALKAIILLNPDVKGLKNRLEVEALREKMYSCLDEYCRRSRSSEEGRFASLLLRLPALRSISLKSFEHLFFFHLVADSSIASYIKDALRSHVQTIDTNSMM
The experiment in a line: biochemical.

For assay [2], the target named is T1, ecdysone receptor (PxGST−EcR). The experiment in a line: competitive radioligand binding, displacement of [3H]PonA from purified EcR/USP dimer. The arrangement: truncated LBD-containing functional domain (D and E domains) fused to GST; with USP (PxGST−USP). A general note: Loss of bound radioactivity is the signal in a displacement assay; it reports binding, not function.

For assay [3], the target named is T2, PxGST-EcR (Plutella xylostella ecdysone receptor, truncated LBD-containing functional domain fused to … (Plutella xylostella, UniProt G5CV07)).
T2 chain: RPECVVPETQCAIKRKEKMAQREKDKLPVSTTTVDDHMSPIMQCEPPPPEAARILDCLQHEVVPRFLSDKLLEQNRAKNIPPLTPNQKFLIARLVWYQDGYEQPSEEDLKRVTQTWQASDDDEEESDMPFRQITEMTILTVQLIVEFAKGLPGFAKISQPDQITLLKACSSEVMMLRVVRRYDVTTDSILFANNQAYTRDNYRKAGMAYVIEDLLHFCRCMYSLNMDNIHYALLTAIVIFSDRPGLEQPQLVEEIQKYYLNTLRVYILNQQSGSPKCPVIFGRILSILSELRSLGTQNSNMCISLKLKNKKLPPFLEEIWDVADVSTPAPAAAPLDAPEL
Briefly: TEM and zeta potential of co-incubated proteins, supported by enhanced [3H]PonA binding.

By Kd is commonly meant the free concentration of one partner at which half of the binding sites on the other are occupied at equilibrium, for simple one-to-one binding. The low end stands for higher affinity, the high end for lower affinity. `CC(C)CC[C@@H](O)[C@](C)(O)[C@H]1CC[C@@]2(O)C3=CC(=O)[C@@H]4C[C@@H](O)[C@@H](O)C[C@]4(C)[C@H]3CC[C@]12C` [PonA]: binding in assay [1] was characterised by a dissociation constant (Kd) of 2.3 nM. For orientation: IC50 means the concentration that inhibits the measured activity by half. With `CCc1ccc(C(=O)NN(C(=O)c2cc(C)cc(C)c2)C(C)(C)C)cc1` [tebufenozide], the IC50 in assay [2] amounted to 80.6 nM. This lies in the double-digit nanomolar range.

B1: PxGST-USP (Plutella xylostella ultraspiracle, truncated LBD-containing functional domain fused to glutathione-S-transferase) (protein)
chain: KREAVQEERQRAARGAEDAHPSSSIQIVLQELSIERLLEMESLVADPSEEFQFLRVGPDSNVPPRYRAPVSSLCQIGNKQIAALVVWARDIPHFSQLELDDQVVLIKSCWNELLLFAIAWRSMEYLEDERENADGSRSSAPPQLMCLMPGMTLHRNSALLAGVGQIFDRVLSELSMKMRALRMDQAEYVALKAIILLNPDVKGLKNRLEVEALREKMYSCLDEYCRRSRSSEEGRFASLLLRLPALRSISLKSFEHLFFFHLVADSSIASYIKDALRSHVQTIDTNSMM
On to B1, for which the binding result in assay [3] is reported as “binds”.

The values above are taken from article PMC9920912, “In Vitro Binding Effects of the Ecdysone Receptor−Binding Domain and PonA in Plutella xylostella” (Molecules, 2023).
